Data from US5874464A, “Conformationally constrained diacylglycerol analogues” (The United States of America as represented by the …, priority 1995, dated 1999).
Read-outs that look alike come from different tables or passages of the source.

Experiments:
PK-C α [1] = target: T1, PK-C α (Homo sapiens, UniProt P17252); test: displacement of bound [3H-20]-phorbol-12,13-dibutyrate (PDBU) from single recombinant isozyme PK-C α; format: binding; details: for Ki: PK-C α
T1 construct: made in house
Description: This recombinant PK-C α was expressed in baculovirus and isolated as described by Kazanietz et al. (Mol. Pharmacol. 44: 298-307 (1993)).
The affinity of these ligands for PK-C was assessed in terms of their ability to displace bound [^3 H-20]-phorbol-12,13-dibutyrate (PDBU) from a purified product containing the single isozyme PK-C α.

[2] = stability to racemization / acyl migration; format: physicochemical; details: silica or neutral alumina
melanoma = details: in vivo; cited from earlier work
[3] = tested on: binding of epidermal growth factor; test: inhibition of binding of epidermal growth factor in intact cells; format: cell-based; details: read-out: ED50, inhibition of binding of epidermal growth factor
Description: (§1) The biological activity of compound 3.8 was evaluated further. […] Finally, the ability of compound 3.8 to down-regulate PK-C α and PK-C δ in primary mouse keratinocytes after 24 hours was examined.

CD-1 mouse skin = test: induction of acute edema or hyperplasia in CD-1 mouse skin; format: in vivo; details: 10-100 μg
PK-C.eta. = test: down-regulation of PK-C.eta. in primary mouse keratinocytes; format: cell-based; details: after 24 hours
PK-C α [4] = target: T1, PK-C α; test: stimulation of phosphorylation of the α-pseudosubstrate peptide (activation of PK-C α); format: biochemical; details: read-out: ED50, stimulation of phosphorylation of the α-pseudosubstrate peptide
PK-C α [5] = target: T2, PK-C α (Mus musculus, UniProt P20444); test: down-regulation of PK-C α in primary mouse keratinocytes; format: cell-based; details: even after 24 h
T2 construct: in primary mouse keratinocytes; endogenous in cells; host or cells: primary mouse keratinocytes
Description: as §1

PK-Cε = test: down-regulation of PK-Cε in primary mouse keratinocytes; format: cell-based; details: after 24 hours
[6] = tested on: mouse skin tumor promotion; details: in vivo; cited from earlier work
[7] = Table II, racemic and chiral compounds, read-out: Apparent Ki for ligands as inhibitors of PDBU binding to PK-C
[8] = Table I, read-out: Apparent Ki for ligands as inhibitors of PDBU binding to PK-C
[9] = read-out: Ki, displacement of bound PDBU
[10] = Table IV, read-out: Apparent Ki for chiral ligands having an α-alkylidene chain as inhibitors of PDBU binding to PK-C

CCCCCCCCCCCCCC(=O)OC[C@]1(CO)CCC(=O)O1 [drawing 16] gave a Ki (PK-C α [1]; [7]) of 96 ± 2.17 nM.

For CCCCCCCCCCCCCCC1CC(CO)(COC(C)=O)OC1=O (stereo not shown) [Compound 12, 5-(acetyloxymethyl)-5-(hydroxymethyl)-3-(tetradecanyl)-tetrahydro-2-furanone], the Ki (PK-C α [1]; [8]) was 75 ± 2.54 nM.

In the case of CCCCCCCCCCCCC/C=C1\C(=O)OCC1(CO)COC(C)=O (stereo not shown) [Compound 14c, (Z)-4-[(acetoxy)methyl]-4-hydroxymethyl-3-(tetradecanylidene)-tetrahydro-2-furanone], the Ki (PK-C α [1]; [8]) is reported as 6510 nM.

CCCCCCCCCCCCCC(=O)OCC1(CO)CCC(=O)O1 (racemic) [Compound 3e, 5-[(tetradecanoyloxy)methyl]-5-hydroxymethyl-tetrahydro-2-furanone] showed a Ki (PK-C α [1]; [9]) of 138 nM.

With CCCCCCCCCCCCCC(=O)OC[C@]1(CO)CCC(=O)O1 [Compound 2.2, (R)-5-[(tetradecanoyloxy)methyl]-5-(hydroxymethyl)-tetrahydro-2-furanone] the Ki (PK-C α [1]; [9]) was 96 nM and the “racemization on exposure to chromatographic conditions” value [2] was “rapid racemization”.

With CCCCCCCC/C=C\CCCCCCC/C=C1\C[C@](/C=C/C(=O)OC)(CO)OC1=O [Compound 3.7, (S)-5-Hydroxymethyl-5-[2-(methoxycarbonyl)ethenyl]-3-{(E)-[(Z)-9-octadecenoylidene]}tetrahydro-2-furanone] the “binding affinity compared with the corresponding α-alkylidenes 3.9 and 3.10” value (PK-C α [1]; Table IV) was “equivalent”.

In the case of CCCC=CC=CC(=O)OC1C(=CC(=O)OC)CC2CC(C(C)O)OC(=O)CC(O)CC3CC(OC(C)=O)C(C)(C)C(O)(CC4CC(=CC(=O)OC)CC(C=CC(C)(C)C1(O)O2)O4)O3 (stereo not shown) [bryostatin-1], the “results in clinical trials for treatment of melanoma” value (melanoma) is listed as “promising results”.

Work on CCCCCCCCCCCCCC(=O)OCC1(CO)CCC(=O)O1 (stereo not shown) yielded a Ki (PK-C α [1]; [7]) of 138 ± 24 nM.

In the case of CCCCCCCC/C=C\CCCCCCC/C=C1/C[C@](/C=C/C(=O)OC)(CO)OC1=O [Compound 3.8, (S)-5-Hydroxymethyl-5-[2-(methoxycarbonyl)ethenyl]-3-{(Z)-[(Z)-9-octadecenoylidene]}tetrahydro-2-furanone], the “binding affinity compared with the corresponding α-alkylidenes 3.9 and 3.10” value (PK-C α [1]; Table IV) is reported as “equivalent”, the IC50 [3] is reported as 1000 nM and the “induction of acute edema” value (CD-1 mouse skin; 6 h) is reported as “did not induce acute edema”. For the same compound, the induction of hyperplasia (CD-1 mouse skin; 72 h) was “did not induce acute edema (10-100 μg, 6 h) or hyperplasia”, the “down-regulation of PK-C.eta.” value (PK-C.eta.) was “did not down-regulate” and the EC50 (PK-C α [4]) was 163 ± 16.7 nM. For the same compound, the loss in activity (PK-C α [5]) was “No loss in activity was observed” and the “down-regulation of PK-Cε” value (PK-Cε) was “did not down-regulate”.

In the case of CCCCCCCC/C=C\CCCCCCCC(=O)OCC1(CO)CCC(=O)O1 (stereo not shown) [Compound 3f, 5-{[(Z)-9-octadecenoyloxy]methyl}-5-hydroxymethyl-tetrahydro-2-furanone], the Ki (PK-C α [1]; [8]) is reported as 96 ± 7.45 nM.

Compound CCCCCCCC/C=C\CCCCCCC/C=C1/C[C@](/C=C/C(=O)OC)(CO)OC1=O [drawing 36] has a Ki (PK-C α [1]; [10]) of 11.3 ± 0.72 nM.

CCCCCCCCCCCCCC(=O)OCC1(CO)COC(=O)C1 (stereo not shown) [Compound 9c, 4-Hydroxymethyl-4-(tetradecanoyloxy)methyl-4-vinyltetrahydro-2-furanone] gave a Ki (PK-C α [1]; [8]) of 9810 nM.

In the case of CC(=O)OC12CC(C)C3(O)C(C=C(CO)CC4(O)C(=O)C(C)=CC43)C1C2(C)C (stereo not shown) [12-deoxyphorbol-13-acetate], the “inhibition of mouse skin tumor promotion” value [6] is listed as 97%.

Compound CCCCCCCC/C=C\CCCCCCC/C=C1\C[C@](/C=C/C(=O)OC)(CO)OC1=O [drawing 35] has a Ki (PK-C α [1]; [10]) of 20.1 ± 2.9 nM.
